Measurements as given in patent US20240366712A1, “G[…] USE IN A METHOD OF PREVENTING OR TREATING INFECTIONS WITH R[…]” (priority 2021, published 2024).

How the values were obtained:
[1] = tested on: Influenza A Virus H1N1v strain A/Regensburg/D6/09 (H1N1v); type: cell-based

| Molecule | Effect on VeroE6 cell viability compared to mock control (VeroE6 cells) | Dilution at which PFU reduction reached the detection limit [1] | Total GRFT concentration at which PFU reduction reached the detection limit [1] [mg/mL] | PFU reduction in virus infected cells ([1]; A549 cells, different dilutions/concentrations, n=3 per reading point) | Toxic effect on VeroE6 cell viability compared to mock control (VeroE6 cells) |
| --- | --- | --- | --- | --- | --- |
| CO[C@H]1C[C@@H]2CC[C@@H](C)[C@@](O)(O2)C(=O)C(=O)N2CCCC[C@H]2C(=O)O[C@H]([C@H](C)C[C@@H]2CC[C@@H](O)[C@H](OC)C2)CC(=O)[C@H](C)/C=C(\C)[C@@H](O)[C@@H](OC)C(=O)[C@H](C)C[C@H](C)/C=C/C=C/C=C/1C [Rapamycin, reference compound] | slightly decreased the viability of cells | – | – | – | – |
| Griffithsin [unencapsulated GRFT] | – | did not reach the detection limit at 1:2 dilution | > 1.325 | concentration dependent PFU reduction | no specific toxic effect |
